Experimental data taken from patent publication US20150087045A1, “CRYSTAL STRUCTURE OF HCV […] AND METHODS OF USE” (GILEAD P[…], priority 2012, published 2015).
Where “and” joins values, the source holds several entries; their conditions need not be identical. Equal entries are not always repeated.

Tests used:
[1] = biological target: T1, HCV NS5B polymerase 1b Δ8 (Hepatitis C virus genotype 1b, UniProt P26663, DEL2863-2870/E2505Q/E2506Q/K2533R/L2466Q/R2963Q/S2872G/Y2871G); assay: Inhibition assay (chain termination) with construct 1b Δ8; type: biochemical, hepatitis C virus genotype 1b BK isolate; conditions: for IC50: one value or range given for both 1b WT and 1b Δ8
T1 construct: 1bΔ8; made in house; host or cells: E. coli Rosetta DE3

[2] = biological target: T2, HCV polymerase 1b Δ8 S282T (Hepatitis C virus genotype 1b, UniProt P26663, DEL2863-2870/E2505Q/E2506Q/K2533R/L2466Q/R2963Q/S2701T/S2872G/Y2871G); assay: Inhibition assay (chain termination) with construct 1b Δ8 S282T; type: biochemical, hepatitis C virus genotype 1b BK isolate
T2 construct: 1bΔ8 S282T; made in house; host or cells: E. coli Rosetta DE3

[3] = test system: HCV polymerase 1b Δ8 S282T; assay: as above; type: biochemical, hepatitis C virus genotype 1b BK isolate; conditions: upon introduction of S282T into 1b Δ8
HCV polymerase 1b S282T [4] = biological target: T3, HCV polymerase 1b S282T (Hepatitis C virus genotype 1b, UniProt P26663, E2505Q/E2506Q/K2533R/L2466Q/R2963Q/S2701T); assay: Inhibition assay (chain termination) with construct 1b S282T; type: biochemical, hepatitis C virus genotype 1b BK isolate
T3 construct: 1b S282T; made in house; host or cells: E. coli Rosetta DE3

HCV polymerase 1b S282T [5] = assay: as above; type: biochemical, hepatitis C virus genotype 1b BK isolate; conditions: upon introduction of S282T into 1b WT
[6] = biological target: T4, HCV NS5B polymerase 1b WT (Hepatitis C virus genotype 1b, UniProt P26663, E2505Q/E2506Q/K2533R/L2466Q/R2963Q); assay: Inhibition assay (chain termination) with construct 1b WT; type: biochemical, hepatitis C virus genotype 1b BK isolate; conditions: one value or range given for both 1b WT and 1b Δ8
T4 construct: 1b WT; made in house; host or cells: E. coli Rosetta DE3
Method: For constructs 1bWT and 1bΔ8, inhibition assays were performed in a 120 μL mixture containing 5 μM of the four natural ribonucleotides, [α-^32P]UTP, 20 ng/μL of genotype 1b (−) IRES RNA template, 1 unit/μL of SUPERase.In (Ambion, Austin, Tex.), 40 ng/μL of NS5B, 5 mM MgCl2, and 2 mM DTT in 50 mM HEPES buffer (pH 7.5). The reaction was incubated at 27° C. and a 20 μL aliquot was taken at 0, 30, 60, 90, and 120 minute time points and quenched by mixing with 80 μL of stop solution (12.5 mM EDTA, 2.25 M NaCl, and 225 mM sodium citrate). The radioactive RNA products were separated from unreacted substrates using a Hybond N+ membrane (GE Healthcare) as described previously (FIG. 2). The products were visualized and quantified using a phosphorimager. The reaction rates and IC 50 values were calculated using GraphFit.

[7] = biological target: T5, HCV NS5B polymerase 2a Δ8 (Hepatitis C virus genotype 2a, UniProt Q99IB8, DEL2886-2893/E2528Q/E2529Q/S2895G/Y2894G); assay: Inhibition assay (chain termination) with construct 2a Δ8; type: biochemical, hepatitis C virus genotype 2a JFH1 isolate; conditions: 15 minutes incubation, 27° C.
T5 construct: 2aΔ8; made in house; host or cells: E. coli Rosetta DE3
Method: (§1) For constructs 2aWT and 2aΔ8, inhibition assays were performed in a 20 μL mixture containing varying concentrations of PSI-352666 or 2′-C-MeGTP, 5 μM of the four natural ribonucleotides, [α-^32P]UTP, 20 ng/μL of genotype 1b (−) IRES RNA template, 1 unit/μL of SUPERase.In (Ambion, Austin, Tex.), 40 ng/μL of NS5B, 5 mM MgCl2, and 2 mM DTT in 50 mM HEPES buffer (pH 7.5).
(§2) The reaction was incubated at 27° C. and quenched by adding 80 μL of stop solution after 60 minutes incubation with 2aWT or 15 minutes incubation with 2aΔ8. The radioactive RNA products were separated from unreacted substrates using a Hybond N+ membrane (GE Healthcare) as described previously^28. The products were visualized and quantified using a phosphorimager. The reaction rates and the IC50 values were calculated using GraphFit (Erithacus Software, Horley, Surrey, UK).

[8] = biological target: T6, HCV NS5B polymerase 2a WT (Hepatitis C virus genotype 2a, UniProt Q99IB8, E2528Q/E2529Q); assay: Inhibition assay (chain termination) with construct 2a WT; type: biochemical, hepatitis C virus genotype 2a JFH1 isolate; conditions: 60 minutes incubation, 27° C.
T6 construct: 2a WT; made in house; host or cells: E. coli Rosetta DE3
Method: as §1, §2

[9] = test system: genotype 1b (−) IRES RNA template; assay: De novo RNA synthesis activity of HCV NS5B polymerase constructs; type: biochemical, hepatitis C virus; conditions: 2a Δ8 with Gly-Gly linker compared to wild-type 2a
Method: HCV activity assays were performed in a 200 μL mixture containing 1 μM of the four natural ribonucleotides, [α-^32P]UTP, 20 ng/μL of genotype 1b (−) IRES RNA template, 1 unit/μL of SUPERase.In (Ambion, Austin, Tex.), 40 ng/μL of NS5B, 5 mM MgCl2, and 2 mM DTT in 50 mM HEPES buffer (pH 7.5). The reaction was incubated at 27° C. and 20 μL aliquots were taken at the desired time points and quenched by mixing in 80 μL of stop solution (12.5 mM EDTA, 2.25 M NaCl, and 225 mM sodium citrate).

[10] = Thermofluor analysis: melting temperature of polymerase constructs; type: physicochemical; conditions: polymerase itself
Method: Thermofluor analysis of HCV polymerases 1bWT, 1bΔ8, 2aWT, and 2aΔ8 was performed as previously described (36, 37) in the absence and presence of symmetrical primer-template pairs or fused hairpin primer-template RNA as described in Example 2.

For `C[C@@]1(O)[C@H](O)[C@@H](COP(=O)(O)OP(=O)(O)OP(=O)(O)O)O[C@H]1n1cnc2c(=O)[nH]c(N)nc21` [2′-C-MeGTP], the IC50 [1] was 7 to 13 µM, the IC50 [2] was > 100 µM and the “increase in IC50” value [3] was > 10 fold. The IC50 (HCV polymerase 1b S282T [4]) was > 100 µM, the “increase in IC50” value (HCV polymerase 1b S282T [5]) was > 10 fold and the IC50 [6] was 7 to 13 µM.

In the case of `C[C@@]1(F)[C@H](O)[C@@H](COP(=O)(O)OP(=O)(O)OP(=O)(O)O)O[C@H]1n1cnc2c(=O)[nH]c(N)nc21` [PSI-352666], the “chain termination: elongation of the terminated product (*GGCX)” value ([1]; in the presence of the next correct incoming nucleotide (ATP), 0-60 min) is reported as “not further elongated”, the IC50 [1] is reported as 4 µM and the IC50 [2] is reported as 9 to 14 µM. For the same molecule, the “increase in IC50” value [3] was ~2.5 fold, the IC50 [7] was 6 µM and 6.41 µM and the IC50 (HCV polymerase 1b S282T [4]) was 9 to 14 µM. The “increase in IC50” value (HCV polymerase 1b S282T [5]) was ~2.5 fold, the IC50 [6] was 4 µM and the IC50 [8] was 6.05 ± 0.82 µM.

For “2a Δ8: 2a WT with the β-hairpin replaced by a Gly-Gly linker, SEQ ID NO:8”, the “de novo RNA synthesis activity compared to 2a WT” value [9] was > 100 fold and the “melting temperature (Tm)” value [10] was ~35 °C.

For “2a WT: HCV polymerase genotype 2a JFH-1 construct, SEQ ID NO:3, C-terminal 21 amino acids replaced by hexahistidine tag, E86Q and E87Q”, the “melting temperature (Tm)” value [10] was ~41 °C.
